# Measured values as given in publication PMC10506422 (Biomedicine & pharmacotherapy = Biomedecine & …, 2022).
# Molecular target: T1, ABCG2 (Homo sapiens, UniProt Q9UNQ0)
# T1 sequence (Q9UNQ0 1-655): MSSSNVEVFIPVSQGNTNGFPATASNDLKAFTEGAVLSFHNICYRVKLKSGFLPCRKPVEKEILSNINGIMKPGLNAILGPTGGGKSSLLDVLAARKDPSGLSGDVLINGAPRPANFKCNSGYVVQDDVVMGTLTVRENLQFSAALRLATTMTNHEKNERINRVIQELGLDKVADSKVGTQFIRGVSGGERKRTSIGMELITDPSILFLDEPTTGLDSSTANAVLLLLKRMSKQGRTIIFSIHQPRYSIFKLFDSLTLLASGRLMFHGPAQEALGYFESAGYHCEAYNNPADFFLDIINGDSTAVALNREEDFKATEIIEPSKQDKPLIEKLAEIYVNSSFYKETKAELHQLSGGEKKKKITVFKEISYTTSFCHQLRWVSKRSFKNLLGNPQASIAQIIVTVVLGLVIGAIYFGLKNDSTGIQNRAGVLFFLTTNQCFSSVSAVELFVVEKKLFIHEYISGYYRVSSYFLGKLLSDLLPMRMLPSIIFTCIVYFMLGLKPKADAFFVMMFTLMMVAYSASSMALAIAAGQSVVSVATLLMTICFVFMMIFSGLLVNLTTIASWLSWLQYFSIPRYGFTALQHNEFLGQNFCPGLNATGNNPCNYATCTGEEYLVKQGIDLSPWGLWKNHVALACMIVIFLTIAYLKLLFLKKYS
# Test: fluorescent substrate efflux/accumulation by flow cytometry
# Format: cell-based
smiles,measurement,value
C=Cc1c(C)c2cc3nc(c4c5[nH]c(cc6nc(cc1[nH]2)C(C)=C6CC)c(C)c5C(=O)[C@@H]4C(=O)OC)[C@@H](CCC(=O)O)[C@@H]3C [pheophorbide A],fluorescent substrate efflux/accumulation by flow cytometry (1 μM PhA),"The intracellular accumulation of pheophorbide A (PhA), a known fluorescent substrate drug of ABCG2, was determined"
